From the NIST ThermoML archive (doi:10.1021/acs.jced.8b00217)
Numbers after ± are expanded uncertainties.

How the values were obtained:
[1] = refractive index (Na D-line) (dimensionless); conditions: 298.15 K; 101.3 kPa; Liquid; Standard Abbe refractometry
[2] = 298.15 K; 101.3 kPa; Liquid; Vibrating tube method
[3] = relative permittivity at various frequencies (dimensionless); conditions: 298.15 K; 101.3 kPa; Liquid; Frequency=0.01 MHz; Coaxial cylinder capacitor
[4] = refractive index (Na D-line) (dimensionless); xn = mol fraction of the nth substance listed; conditions: 298.15 K, 101.3 kPa, Liquid, Standard Abbe refractometry
[5] = xn = mol fraction of the nth substance listed; conditions: 298.15 K, 101.3 kPa, Liquid, Vibrating tube method
[6] = relative permittivity at various frequencies (dimensionless); xn = mol fraction of the nth substance listed; conditions: 298.15 K, 101.3 kPa, Liquid, Frequency=0.01 MHz, Coaxial cylinder capacitor

CCCCCCCCO [octan-1-ol]
refractive index [1]: 1.4276 ± 0.0011
mass density [2]: 821.98 ± 1 kg/m3
relative permittivity [3]: 9.85 ± 0.55

O=C1CCCC1 [cyclopentanone]
refractive index [1]: 1.4347 ± 0.0011
mass density [2]: 944.31 ± 1 kg/m3
relative permittivity [3]: 13.52 ± 0.63

CCO [ethanol] + O=C1CCCC1
refractive index ([4]; x2 = 0): 1.3594 ± 0.001
mass density ([5]; x2 = 0): 785.26 ± 1 kg/m3
relative permittivity ([6]; x2 = 0): 24.37 ± 0.84

CCCCCCCCCCO [decan-1-ol] + O=C1CCCC1
refractive index ([4]; x2 = 0): 1.4352 ± 0.0011
mass density ([5]; x2 = 0): 826.71 ± 1 kg/m3
relative permittivity ([6]; x2 = 0): 7.74 ± 0.49

O=C1CCCC1 [cyclopentanone] + C1CCCCC1
refractive index ([4]; x1 = 0.03): 1.4235 ± 0.001
refractive index ([4]; x1 = 0.05): 1.4235 ± 0.001
refractive index ([4]; x1 = 0.1): 1.4236 ± 0.001
refractive index ([4]; x1 = 0.15): 1.4237 ± 0.001
refractive index ([4]; x1 = 0.2): 1.4239 ± 0.001
refractive index ([4]; x1 = 0.3): 1.4244 ± 0.001
refractive index ([4]; x1 = 0.4): 1.4252 ± 0.001
refractive index ([4]; x1 = 0.5): 1.4262 ± 0.001
refractive index ([4]; x1 = 0.6): 1.4274 ± 0.001
refractive index ([4]; x1 = 0.7): 1.4289 ± 0.0011
refractive index ([4]; x1 = 0.8): 1.4306 ± 0.0011
refractive index ([4]; x1 = 0.9): 1.4325 ± 0.0011
refractive index ([4]; x1 = 1): 1.4347 ± 0.0011
relative permittivity ([6]; x1 = 0.03): 2.25 ± 0.3
relative permittivity ([6]; x1 = 0.05): 2.39 ± 0.31
relative permittivity ([6]; x1 = 0.1): 2.78 ± 0.32
relative permittivity ([6]; x1 = 0.15): 3.19 ± 0.34
relative permittivity ([6]; x1 = 0.2): 3.61 ± 0.36
relative permittivity ([6]; x1 = 0.3): 4.51 ± 0.39
relative permittivity ([6]; x1 = 0.4): 5.51 ± 0.42
relative permittivity ([6]; x1 = 0.5): 6.6 ± 0.46
relative permittivity ([6]; x1 = 0.6): 7.78 ± 0.49
relative permittivity ([6]; x1 = 0.7): 9.06 ± 0.53
relative permittivity ([6]; x1 = 0.8): 10.45 ± 0.56
relative permittivity ([6]; x1 = 0.9): 11.94 ± 0.6
relative permittivity ([6]; x1 = 1): 13.52 ± 0.63

C1CCCCC1 [cyclohexane]
refractive index [1]: 1.4235 ± 0.001
mass density [2]: 773.89 ± 1 kg/m3
relative permittivity [3]: 2.02 ± 0.29

O=C1CCCC1 [cyclopentanone] + CCCCO
refractive index ([4]; x1 = 0.1): 1.4015 ± 0.0011
refractive index ([4]; x1 = 0.2): 1.4057 ± 0.0011
refractive index ([4]; x1 = 0.3): 1.4098 ± 0.0011
refractive index ([4]; x1 = 0.4): 1.4137 ± 0.0011
refractive index ([4]; x1 = 0.5): 1.4175 ± 0.0011
refractive index ([4]; x1 = 0.6): 1.4212 ± 0.0011
refractive index ([4]; x1 = 0.7): 1.4248 ± 0.0011
refractive index ([4]; x1 = 0.8): 1.4282 ± 0.0011
refractive index ([4]; x1 = 0.9): 1.4315 ± 0.0011
refractive index ([4]; x1 = 1): 1.4347 ± 0.0011
mass density ([5]; x1 = 0.1): 820.75 ± 1.1 kg/m3
mass density ([5]; x1 = 0.2): 835.31 ± 1.1 kg/m3
mass density ([5]; x1 = 0.3): 849.88 ± 1.1 kg/m3
mass density ([5]; x1 = 0.4): 864.47 ± 1.1 kg/m3
mass density ([5]; x1 = 0.5): 878.88 ± 1.1 kg/m3
mass density ([5]; x1 = 0.6): 893.05 ± 1.1 kg/m3
mass density ([5]; x1 = 0.7): 906.81 ± 1.1 kg/m3
mass density ([5]; x1 = 0.8): 920.01 ± 1.1 kg/m3
mass density ([5]; x1 = 0.9): 932.67 ± 1.1 kg/m3
mass density ([5]; x1 = 1): 944.31 ± 1 kg/m3
relative permittivity ([6]; x1 = 0.1): 16.31 ± 0.69
relative permittivity ([6]; x1 = 0.2): 15.37 ± 0.67
relative permittivity ([6]; x1 = 0.3): 14.58 ± 0.65
relative permittivity ([6]; x1 = 0.4): 13.97 ± 0.64
relative permittivity ([6]; x1 = 0.5): 13.5 ± 0.6
relative permittivity ([6]; x1 = 0.6): 13.18 ± 0.62
relative permittivity ([6]; x1 = 0.7): 13.03 ± 0.62
relative permittivity ([6]; x1 = 0.8): 13.04 ± 0.62
relative permittivity ([6]; x1 = 0.9): 13.19 ± 0.62
relative permittivity ([6]; x1 = 1): 13.52 ± 0.63

O=C1CCCC1 [cyclopentanone] + CCCCCCCCO
refractive index ([4]; x1 = 0.1): 1.4276 ± 0.0011
refractive index ([4]; x1 = 0.2): 1.4278 ± 0.0011
refractive index ([4]; x1 = 0.3): 1.4282 ± 0.0011
refractive index ([4]; x1 = 0.4): 1.4287 ± 0.0011
refractive index ([4]; x1 = 0.5): 1.4294 ± 0.0011
refractive index ([4]; x1 = 0.6): 1.4302 ± 0.0011
refractive index ([4]; x1 = 0.7): 1.4311 ± 0.0011
refractive index ([4]; x1 = 0.8): 1.4321 ± 0.0011
refractive index ([4]; x1 = 0.9): 1.4333 ± 0.0011
refractive index ([4]; x1 = 1): 1.4347 ± 0.0011
mass density ([5]; x1 = 0.1): 827.28 ± 1 kg/m3
mass density ([5]; x1 = 0.2): 833.41 ± 1 kg/m3
mass density ([5]; x1 = 0.3): 841.25 ± 1 kg/m3
mass density ([5]; x1 = 0.4): 850.89 ± 1 kg/m3
mass density ([5]; x1 = 0.5): 862.2 ± 1.1 kg/m3
mass density ([5]; x1 = 0.6): 874.88 ± 1.1 kg/m3
mass density ([5]; x1 = 0.7): 889.18 ± 1.1 kg/m3
mass density ([5]; x1 = 0.8): 905.27 ± 1.1 kg/m3
mass density ([5]; x1 = 0.9): 923.62 ± 1.1 kg/m3
mass density ([5]; x1 = 1): 944.31 ± 1 kg/m3
relative permittivity ([6]; x1 = 0.1): 9.63 ± 0.54
relative permittivity ([6]; x1 = 0.2): 9.51 ± 0.54
relative permittivity ([6]; x1 = 0.3): 9.5 ± 0.54
relative permittivity ([6]; x1 = 0.4): 9.65 ± 0.54
relative permittivity ([6]; x1 = 0.5): 9.94 ± 0.55
relative permittivity ([6]; x1 = 0.6): 10.37 ± 0.56
relative permittivity ([6]; x1 = 0.7): 10.97 ± 0.57
relative permittivity ([6]; x1 = 0.8): 11.69 ± 0.59
relative permittivity ([6]; x1 = 0.9): 12.55 ± 0.61
relative permittivity ([6]; x1 = 1): 13.52 ± 0.63
